According to patent US10981862B2, “Physiological cooling compounds” (Symrise, Inc., priority 2015, dated 2021):

Tests used:
sensory panel = experiment: Sensory panel evaluation of cooling ability, 20 ppm aqueous solutions; format: in vivo; design: key to Peak cooling strength / Peak Strength: —: Not cooling under tested conditions; details: for Longevity of cooling sensation / Time to reach peak cooling / Time period at peak cooling / Peak cooling strength / Peak Strength: 20 ppm aqueous solution; for Time period at peak cooling: cooling plateau; for Peak cooling strength: maximum cooling strength rated on a 1-10 scale; for Peak Strength: Table 4, repeats Table 2, 1-10 scale; for Cooling properties, in words: sensory panel results
Procedure: The new carboxamides A1-A15 and B1-B15 were evaluated for their cooling ability by a sensory panel. The evaluation included tasting the 20 ppm aqueous solutions of new carboxamides and rating their maximum cooling strength on a 1-10 scale. In addition, the time at which maximum cooling strength was reached, how long the maximum strength was observed (so called cooling plateau), and the longevity of cooling sensation were recorded. The FIGURE represents a typical cooling profile, using compound A1 as an example. The obtained results (table 2), were compared with two most commonly used commercial cooling compounds WS-3 and WS-23 which belong to the same class of N-alkyl carboxamides. While various methods exist for evaluation of cooling compounds, we have chosen the parameters that allow to assess the practical aspects of new compounds that reflect their potential value as commercial sensory ingredients.

[1] = Cooling strength and longevity in alcohol-free mouthwash; format: in vivo; details: compared with WS-5
Procedure: Select physiological coolants according to various embodiments were tested in an alcohol-free mouthwash and their impact was evaluated against the control (a known coolant WS-5).

[2] = Cooling strength and longevity in toothpaste; format: in vivo; details: compared with controls
Procedure: New cooling compound according to compound A2 was tested in toothpaste and its impact was evaluated against two controls (no coolant and a known coolant WS-5) and in combination with WS-5.

[3] = Cooling evaluation in hard boiled candy; format: in vivo; details: compared with both control samples
Procedure: Compound A2 was tested in hard boiled candy and evaluated against controls.

[4] = amount of compound needed to produce a cooling sensation; cited from earlier work

melting point [°C]	Compound	Longevity of cooling sensation (sensory panel) [min]	Time to reach peak cooling (sensory panel) [min]	Time period at peak cooling (sensory panel) [min]	Peak cooling strength (sensory panel)	Peak Strength (sensory panel)	Cooling effect in mouthwash, in words [1]	Cooling properties, in words (sensory panel)	Cooling effect in toothpaste, in words [2]	Cooling impact in hard candy, in words [3]	Threshold [4] [µg]
–	CCCCCC(C)NC(=O)C1CC(C)CCC1C(C)C (centres unmarked) [Compound A11]	15	8	2	2	2	–	–	–	–	–
92.8	CCC(C)CNC(=O)C1CC(C)CCC1C(C)C (centres unmarked) [Compound A6]	20	3	2	6	6	–	–	–	–	–
105	CCC(CC)NC(=O)C(C)(C(C)C)C(C)C [Compound B7]	14	4	2	4	–	–	–	–	–	–
–	CNC(=O)C(C)(C(C)C)C(C)C [WS-23, reference compound]	7	2	2	4	–	–	–	–	–	–
98	CCCC(C)NC(=O)C(C)(C(C)C)C(C)C (centres unmarked) [Compound B5]	15	2	3	6	–	–	–	–	–	–
152.6	CC(C)CC(C)NC(=O)C1CC(C)CCC1C(C)C (centres unmarked) [Compound A9]	15	5	4	3	3	–	–	–	–	–
192.6	CCC(CC)NC(=O)C1CC(C)CCC1C(C)C (centres unmarked) [Compound A7]	16	3	2	6	6	–	–	–	–	–
82.5	CCCCC(CC)CNC(=O)C(C)(C(C)C)C(C)C (centres unmarked) [Compound B13]	–	–	–	— ^a	–	–	–	–	–	–
83.7	CC(C)CC(C)NC(=O)C(C)(C(C)C)C(C)C (centres unmarked) [Compound B9]	18	4	2	5	–	–	–	–	–	–
58.8	CCCCCCNC(=O)C1CC(C)CCC1C(C)C (centres unmarked) [Compound A8]	29	5	2	6	6	superior long-lasting cooling effect	peak cooling strength exceeds both WS-3 and A4	–	–	–
–	CCCCCCCCNC(=O)C1CC(C)CCC1C(C)C (centres unmarked) [Compound A12]	10	6	4	2	2	–	–	–	–	–
152.4	CC1CCC(C(C)C)C(C(=O)NCC(C)(C)C)C1 (centres unmarked) [Compound A3]	22	4	3	7	7	–	–	–	–	–
–	CCC(C)(C)NC(=O)C(C)(C(C)C)C(C)C [Compound B1]	–	–	–	— ^a	–	–	does not possess any cooling properties	–	–	–
–	CCCCCCCNC(=O)C1CC(C)CCC1C(C)C (centres unmarked) [Compound A10]	19	4	1	5	5	–	–	–	–	–
67.1	CCC(C)CNC(=O)C(C)(C(C)C)C(C)C (centres unmarked) [Compound B6]	17	3	2	4	–	–	–	–	–	–
88.4	CC(C)C(C)NC(=O)C(C)(C(C)C)C(C)C (centres unmarked) [Compound B4]	14	3	2	4	–	–	–	–	–	–

melting point [°C]	Compound	Longevity of cooling sensation (sensory panel) [min]	Time to reach peak cooling (sensory panel) [min]	Time period at peak cooling (sensory panel) [min]	Peak cooling strength (sensory panel)	Peak Strength (sensory panel)	Cooling effect in mouthwash, in words [1]	Cooling properties, in words (sensory panel)	Cooling effect in toothpaste, in words [2]	Cooling impact in hard candy, in words [3]	Threshold [4] [µg]
–	CC(C)C(C)(C(=O)NC(C)(C)CC(C)(C)C)C(C)C [Compound B15]	–	–	–	— ^a	–	–	–	–	–	–
72.2	CC(C)CCNC(=O)C(C)(C(C)C)C(C)C [Compound B2]	12	3	2	2	–	–	–	–	–	–
133.1	CCC(C)(C)NC(=O)C1CC(C)CCC1C(C)C (centres unmarked) [Compound A1]	25	6	2	8	8	superior long-lasting cooling effect	one of the most potent coolants found among the N-alkyl p-menthane carboxamides	–	–	–
69.6	CC(C)CCNC(=O)C1CC(C)CCC1C(C)C (centres unmarked) [Compound A2]	23	5	2	7	7	superior long-lasting cooling effect	–	superior and longer lasting effect	long-lasting cooling impact	–
107	CC1CCC(C(C)C)C(C(=O)NC(C)(C)CC(C)(C)C)C1 (centres unmarked) [Compound A15]	14	4	6	2	2	–	only as strong as A12 and much weaker than other coolants	–	–	–
–	CCCCCCNC(=O)C(C)(C(C)C)C(C)C [Compound B8]	17	4	1	3	–	–	–	–	–	–
160.2	CC1CCC(C(C)C)C(C(=O)NC(C)C(C)C)C1 (centres unmarked) [Compound A4]	20	3	2	5	5	–	–	–	–	–
59.4	CC(C)CCCC(C)NC(=O)C(C)(C(C)C)C(C)C (centres unmarked) [Compound B14]	–	–	–	— ^a	–	–	–	–	–	–
–	CCCCCCCNC(=O)C(C)(C(C)C)C(C)C [Compound B10]	–	–	–	— ^a	–	–	–	–	–	–
65.9	CC(C)C(C)(C(=O)NCC(C)(C)C)C(C)C [Compound B3]	15	3	3	3	–	–	–	–	–	–
146.7	CC(C)CCCC(C)NC(=O)C1CC(C)CCC1C(C)C (centres unmarked) [Compound A14]	–	–	–	— ^a	—^a	–	–	–	–	–
–	CCNC(=O)C1CC(C)CCC1C(C)C (centres unmarked) [WS-3, reference compound]	11	2	2	5	–	–	–	–	–	0.3
46.9	CCCCCC(C)NC(=O)C(C)(C(C)C)C(C)C (centres unmarked) [Compound B11]	–	–	–	— ^a	–	–	–	–	–	–
–	CCCCCCCCNC(=O)C(C)(C(C)C)C(C)C [Compound B12]	–	–	–	— ^a	–	–	–	–	–	–
–	CNC(=O)C1CC(C)CCC1C(C)C (centres unmarked) [Methyl]	–	–	–	–	–	–	–	–	–	1.1
